In the first assay the test system is cloned mammalian (mSlo or hSlo) BK channels. In words: BK-mediated outward current in Xenopus oocytes, two-electrode voltage clamp. Type of assay: cell-based. The following applies: at 20 μM; expressed as percent increase over BK current in controls; IBTX-sensitive current; at least 5 oocytes. How it is done: The ability of compounds described in the present invention to open BK channels and increase whole-cell outward (K^+) BK-mediated currents was assessed under voltage-clamp conditions by determining their ability to increase cloned mammalian (mSlo or hSlo) BK-mediated outward current heterologously expressed in Xenopus oocytes [Butler, A., et al., Science, 261: 221-224 (1993); and Dworetzky, S. I., et al., Mol. Brain Res., 27: 189-193 (1994)]. The two BK constructs employed represent nearly structurally identical homologous proteins, and have proven to be pharmacologically identical in our tests. To isolate BK current from native (background, non-BK) current, the specific and potent BK channel-blocking toxin iberiotoxin (IBTX) [Galvez, A., et al., J. Biol. Chem., 265: 11083-11090 (1990)] was employed at a supramaximal concentration (50 nM). The relative contribution of BK channels current to total outward current was determined by subtraction of the current remaining in the presence of IBTX (non-BK current) from the current profiles obtained in all other experimental conditions (control, drug, and wash). […] All compounds were tested in at least 5 oocytes and are reported at the single concentration of 20 μM; the effect of the selected compounds of Formula I on BK current was expressed as the percent of control IBTX-sensitive current and is listed in Table I. Recordings were accomplished using standard two-electrode voltage clamp techniques [Stuhmer, W., et al., Methods in Enzymology, Vol. 207: 319-339 (1992)]; voltage-clamp protocols consisted of 500-750 ms duration step depolarizations from a holding potential of -60 mV to +140 mV in 20 mV steps. The experimental media (modified Barth's solution) consisted of (in mM): NaCl (88), NaHCO3 (2.4), KCl (1.0), HEPES (10), MgSO4 (0.82), Ca(NO3)2 (0.33), CaCl2 (0.41); pH 7.5.
Background: Two-electrode voltage clamp holds a large cell at a set potential and records current.
With `O=C(Nc1c(-c2cc(Cl)ccc2O)c2cc(C(F)(F)F)ccc2[nH]c1=O)c1ccc(O)cc1` [Example 29, N-[4-(5-Chloro-2-hydroxyphenyl)-2-oxo-6-(trifluoromethyl)-1H-quinolin-3-yl]-4-hydroxybenzamide], the “BK Current” value is reported as “+ (+ = 100-150%)”. With `O=C(Nc1c(-c2cc(Cl)ccc2O)c2cc(C(F)(F)F)ccc2[nH]c1=O)OCc1ccccc1` [Example 17, N-[4-(5-Chloro-2-hydroxyphenyl)-2-oxo-6-(trifluoromethyl)-1H-quinolin-3-yl]aminocarboxylic acid, phenylmethyl ester], the “BK Current” value is “++ (++ = > 150%)”.

Consider `O=C(Nc1c(-c2cc(Cl)ccc2O)c2cc(C(F)(F)F)ccc2[nH]c1=O)c1ccccc1` [Example 10, N-[4-(5-Chloro-2-hydroxyphenyl)-2-oxo-6-(trifluoromethyl)-1H-quinolin-3-yl]benzamide], for which the “BK Current” value is “+ (+ = 100-150%)”.

On to `Nc1c(-c2cc(Cl)ccc2O)c2cc([N+](=O)[O-])ccc2[nH]c1=O` [Example 19, 3-Amino-4-(5-chloro-2-hydroxyphenyl)-6-nitroquinolin-2(1H)-one], for which the “BK Current” value is “++ (++ = > 150%)”.

With `Cn1c(=O)c(N)c(-c2cc(Cl)ccc2O)c2cc(C(F)(F)F)ccc21` [Example 68, 3-Amino-4-(5-chloro-2-hydroxy-phenyl)-1-methyl-6-(trifluoro-methyl)quinolin-2(1H)-one], the “BK Current” value is “+ (+ = 100-150%)”. Turning to `O=c1[nH]c2ccc(C(F)(F)F)cc2c(-c2cc(Cl)ccc2O)c1NS(=O)(=O)c1ccc([N+](=O)[O-])cc1` [Example 64, N-[4-(5-Chloro-2-hydroxyphenyl)-2-oxo-6-(trifluoromethyl)-1H-quinolin-3-yl]-4-nitrobenzene-sulfonamide], the “BK Current” value is reported as “++ (++ = > 150%)”.

For the compound `Nc1c(-c2cc(Cl)ccc2O)c2ccccc2[nH]c1=O` [Example 14, 3-Amino-4-(5-chloro-2-hydroxyphenyl)quinolin-2(1H)-one], the “BK Current” value is given as “+ (+ = 100-150%)”. As for `O=c1[nH]c2ccc(C(F)(F)F)cc2c(-c2cc(Cl)ccc2O)c1NS(=O)(=O)c1ccc(F)cc1` [Example 66, N-[4-(5-Chloro-2-hydroxyphenyl)-2-oxo-6-(trifluoromethyl)-1 H-quinolin-3-yl]-(4-fluorobenzene)sulfonamide], the “BK Current” value was “++ (++ = > 150%)”. As to `Nc1c(-c2ccc(O)c(Cl)c2)c2cc(C(F)(F)F)ccc2[nH]c1=O` [Example 71, 3-Amino-4-(3-chloro-4-hydroxy-phenyl)-6-(trifluoromethyl)quinolin-2(1H)-one], the “BK Current” value is given as “+ (+ = 100-150%)”.

With `Nc1c(-c2cc(Cl)ccc2O)c2c(C(F)(F)F)c(Cl)ccc2[nH]c1=O` [Example 44, 3-Amino-4-(5-chloro-2-hydroxyphenyl)-6-chloro-5-(trifluoromethyl)quinolin-2(1H)-one], the “BK Current” value was “+ (+ = 100-150%)”.

Consider `O=c1[nH]c2ccc(C(F)(F)F)cc2c(-c2cc(Cl)ccc2O)c1NS(=O)(=O)C(F)(F)F` [Example 5, N-[4-(5-Chloro-2-hydroxyphenyl)-2-oxo-6-(trifluoromethyl)-1H-quinolin-3-yl]trifluoromethanesulfonamide], for which the “BK Current” value was “++ (++ = > 150%)”. Take `Nc1c(-c2cc(Cl)ccc2O)c2cc(Cl)c(C(F)(F)F)cc2[nH]c1=O` [Example 43, 3-Amino-4-(5-chloro-2-hydroxyphenyl)-6-chloro-7-(trifluoromethyl)quinolin-2(1H)-one]: the “BK Current” value was “+ (+ = 100-150%)”.

For the compound `Nc1c(-c2cc(Cl)ccc2O)c2cc(C(F)(F)F)ccc2[nH]c1=O` [Example 2, 3-Amino-4-(5-chloro-2-hydroxyphenyl)-6-(trifluoromethyl)quinolin-2(1H)-one], the “BK Current” value is reported as “++ (++ = > 150%)”. Still for that read-out and setting: for `COc1ccc(CC(=O)Nc2c(-c3cc(Cl)ccc3O)c3cc(C(F)(F)F)ccc3[nH]c2=O)cc1` [Example 32, N-[4-(5-Chloro-2-hydroxyphenyl)-2-oxo-6-(trifluoromethyl)-1H-quinolin-3-yl]-(4-methoxyphenyl)acetamide] the value was “+ (+ = 100-150%)”.

A further assay concerns cortical infarct volume after middle cerebral artery occlusion. In words: Permanent focal ischemia, middle cerebral artery occlusion (MCAO model). The following applies: 0.001 mg/kg intravenous single bolus 30 minutes after MCAO; vs vehicle-treated control; infarct measured 24 hours after MCAO. It is filed as in vivo, spontaneously hypertensive rat. The text has this: To determine the ability of these compounds to reduce cell loss resulting from neuronal ischemia, a standard rodent model of permanent focal ischemia, involving occlusion of the middle cerebral artery in the spontaneously hypertensive rat (MCAO model) was employed [Tamura, A., et al., Journal of Cerebral Blood Flow and Metabolism, Volume 1, 53-60, (1981)].
Selected compounds have been evaluated in the focal stroke model involving permanent middle cerebral artery occlusion (MCAO) in the spontaneously hypertensive rat. This procedure results in a reliably large neocortical infarct volume that is measured by means of vital dye exclusion in serial slices through the brain 24 hours after MCAO. In the present test, compounds were administered using an intravenous route of administration at 30 minutes after occlusion.
On to `Nc1c(-c2cc(Cl)ccc2O)c2cc(C(F)(F)F)ccc2[nH]c1=O` [Example 2, 3-Amino-4-(5-chloro-2-hydroxyphenyl)-6-(trifluoromethyl)quinolin-2(1H)-one], for which the “reduction of cortical infarct volume” value is reported as “about 14%”.

Values taken from patent publication US5972961A, “4-aryl-3-aminoquinoline-2-one derivatives as potassium channel modulators” (Bristol-Myers Squibb Company, priority 1998, dated 1999).
